Experimental findings from ChEMBL document CHEMBL1201862, “PubChem BioAssay data set” (2004) are described below.

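Where inhibition never reached the appropriate level, the endpoint shown equals the highest concentration tested. Otherwise, values were interpolated linearly from a five-concentration, 48-hour dose response in 96-well plates. Here, GI50 denotes the concentration required for 50% inhibition of growth.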 Active and inactive are the calls of the source. No stated cut-off is given here; in the data, active = GI50 up to about 1.1 µM and inactive = higher. Where a SMILES comes first, the peptide text is derived from it. The star is where a group is joined. Cbz = O=C(OCc1ccccc1)*; Bn = c1ccc(C*)cc1

Among the test systems are UACC-62; SF-295; SF-268; LOX IMVI; NCI/ADR-RES; HCT-15; EKVX; CAKI-1; HCT-116; OVCAR-3; SK-MEL-5; NCI-H23; MDA-MB-435; HL-60; U-251; BT-549; CCRF-CEM; OVCAR-8; K562; HOP-18.
Common to all, as to test: NCI-60 cell line screen, 48 h

For the compound `Nc1c2c(=O)[nH]c(=O)c2c(N)c2c(=O)c3ccccc3c(=O)c12`, the GI50 is 1.61 µM (inactive) in the experiment on UACC-62; 1.59 µM (inactive) with SF-295; 2.65 µM (inactive) in the experiment on SF-268; 1.23 µM (inactive) in the experiment on LOX IMVI; 2.11 µM (inactive) in the experiment on NCI/ADR-RES; 1.36 µM in the experiment on HCT-15. In addition, the GI50 was 3.17 µM (inactive) with EKVX; 3.5 µM (inactive) with CAKI-1; 4.6 µM (inactive) in the experiment with HCT-116; 0.684 µM (active) with OVCAR-3; 0.179 µM (active) with SK-MEL-5; 0.76 µM (active) in the experiment with NCI-H23. Besides, the GI50 with MDA-MB-435 was 0.478 µM (active); with HL-60, 2 µM (inactive); in the experiment on U-251, 3.61 µM (inactive); in the experiment on BT-549, 1.99 µM (inactive); in the experiment with CCRF-CEM, 2.93 µM (inactive); in the experiment on OVCAR-8, 1.82 µM (inactive). The GI50 with K562 was 3.02 µM (inactive).
`O=CC1C(Cl)=Nc2nc3ccccc3n2C1c1ccc([N+](=O)[O-])cc1` (stereo not given): the GI50 was 16.3 µM (inactive) in the experiment on UACC-62; 23.2 µM (inactive) with SF-295; 6.84 µM (inactive) in the experiment with SF-268; 2.18 µM (inactive) with LOX IMVI; 40.5 µM (inactive) in the experiment with NCI/ADR-RES; 2.93 µM in the experiment on HCT-15. Further, the GI50 was 24.1 µM (inactive) in the experiment with EKVX; 3.09 µM (inactive) in the experiment with CAKI-1; 3.73 µM (inactive) in the experiment with HCT-116; 3.85 µM (inactive) with OVCAR-3; 6.68 µM (inactive) with SK-MEL-5; 7.96 µM (inactive) in the experiment with NCI-H23. Moreover, the GI50 with MDA-MB-435 is 4.81 µM (inactive); with HL-60 it was 3.28 µM (inactive); in the experiment on U-251 it was 5.52 µM (inactive); in the experiment on BT-549 it was < 0.01 µM (active); in the experiment with CCRF-CEM, 3.11 µM (inactive); with OVCAR-8, 3.95 µM (inactive). Moreover, the GI50 with K562 is 1.8 µM (inactive).
In the case of `COc1ccc2c(c1)CCC(CN1CCN(CCOC(c3ccccc3)c3ccccc3)CC1)C2O` (stereo not given), the GI50 in the experiment on UACC-62 was 13.5 µM (inactive); in the experiment on SF-295, 18.9 µM (inactive); in the experiment with SF-268, 16.6 µM (inactive); in the experiment on LOX IMVI it was 17.3 µM (inactive); with NCI/ADR-RES, 13.8 µM (inactive); in the experiment with HCT-15, 10.8 µM. The GI50 with EKVX is 11.1 µM (inactive); with CAKI-1, 15.7 µM (inactive); in the experiment on HCT-116, 12.2 µM (inactive); in the experiment on OVCAR-3, 15.3 µM (inactive); with SK-MEL-5 it was 8.3 µM (inactive); with NCI-H23, 15.1 µM (inactive). The GI50 was 16.6 µM (inactive) with MDA-MB-435; 2.81 µM (inactive) with HL-60; 14.8 µM (inactive) in the experiment with U-251; 14 µM (inactive) in the experiment on BT-549; 16.3 µM (inactive) in the experiment with CCRF-CEM; 14.5 µM (inactive) in the experiment on OVCAR-8. For the same compound, the GI50 in the experiment on K562 was 6.58 µM (inactive).
`COC(=O)C(Cc1ccc(O)cc1)NC(=O)C(COCc1ccccc1)NC(=O)OCc1ccccc1` (stereo not given) (Cbz-Ser(Bn)-Tyr-OMe; configuration not given here): the GI50 with UACC-62 is 17 µM (inactive); with SF-295, 16.5 µM (inactive); with SF-268, 17.5 µM (inactive); with LOX IMVI, 22.2 µM (inactive); in the experiment with NCI/ADR-RES it was 19.6 µM (inactive); with HCT-15 it was 18.8 µM. The GI50 is 22.5 µM (inactive) in the experiment with EKVX; 20.2 µM (inactive) with CAKI-1; 20.9 µM (inactive) in the experiment with HCT-116; 17.7 µM (inactive) with OVCAR-3; 17 µM (inactive) in the experiment on SK-MEL-5; 20.1 µM (inactive) in the experiment on NCI-H23. The GI50 is 19.1 µM (inactive) with MDA-MB-435; > 100 µM (inactive) with HL-60; 18.7 µM (inactive) in the experiment on U-251; 72.3 µM (inactive) in the experiment with BT-549; 71.4 µM (inactive) in the experiment with CCRF-CEM; 17.8 µM (inactive) in the experiment on OVCAR-8. Also, the GI50 in the experiment with K562 is > 100 µM (inactive).
With `CC1(c2nc3ccccc3[nH]2)CCC(CO)C(C)(C)O1` (stereo not given), the GI50 in the experiment on UACC-62 is > 100 µM (inactive); with SF-295, > 100 µM (inactive); in the experiment on SF-268 it was > 100 µM (inactive); with LOX IMVI, > 100 µM (inactive); in the experiment with NCI/ADR-RES, > 100 µM (inactive); in the experiment on HCT-15 it was more than 100 µM. The GI50 with EKVX, in the experiment with CAKI-1, in the experiment with HCT-116, in the experiment with OVCAR-3, with SK-MEL-5 and in the experiment on NCI-H23 was > 100 µM (inactive) each time. Besides, the GI50 in the experiment on MDA-MB-435, in the experiment on HL-60, in the experiment with U-251, in the experiment on BT-549, in the experiment with CCRF-CEM and with OVCAR-8 was > 100 µM (inactive) in each case. In the experiment on K562, the GI50 was > 100 µM (inactive).
On to `COc1cccc(Nc2nc(-c3cccs3)nc3ccc(Br)cc23)c1`, for which the GI50 was 66.2 µM (inactive) in the experiment with UACC-62; 36.6 µM (inactive) with SF-295; 41.8 µM (inactive) in the experiment with SF-268; > 100 µM (inactive) in the experiment on LOX IMVI; 40.5 µM (inactive) in the experiment on NCI/ADR-RES; more than 100 µM in the experiment on HCT-15. In addition, the GI50 is > 100 µM (inactive) in the experiment with EKVX; 33.7 µM (inactive) with CAKI-1; 50.5 µM (inactive) in the experiment on HCT-116; 36.6 µM (inactive) in the experiment with OVCAR-3; 55.5 µM (inactive) with SK-MEL-5; 46 µM (inactive) in the experiment on NCI-H23. Also, the GI50 was 76 µM (inactive) with MDA-MB-435; > 100 µM (inactive) in the experiment on HL-60; 35.5 µM (inactive) with U-251; > 100 µM (inactive) with BT-549; 0.0101 µM (active) in the experiment on CCRF-CEM; 39.2 µM (inactive) in the experiment with OVCAR-8. Moreover, in the experiment with K562, the GI50 is > 100 µM (inactive).
For the compound `COc1ccc2[nH]cc(C=C3C(=O)NC(=S)NC3=O)c2c1`, the GI50 with UACC-62 was > 100 µM (inactive); with SF-295, 94.8 µM (inactive); in the experiment on SF-268 it was 19.8 µM (inactive); in the experiment with LOX IMVI, > 100 µM (inactive); with NCI/ADR-RES, > 100 µM (inactive); with HCT-15 it was more than 100 µM. The GI50 with EKVX was > 100 µM (inactive); with CAKI-1 it was > 100 µM (inactive); with HCT-116, > 100 µM (inactive); in the experiment on OVCAR-3, > 100 µM (inactive); in the experiment on SK-MEL-5 it was > 100 µM (inactive); in the experiment on NCI-H23 it was 31.2 µM (inactive). Further, the GI50 was > 100 µM (inactive) in the experiment with MDA-MB-435; > 100 µM (inactive) in the experiment on HL-60; 24.2 µM (inactive) in the experiment on U-251; 53 µM (inactive) in the experiment on BT-549; 71.8 µM (inactive) with CCRF-CEM; 36.6 µM (inactive) in the experiment on OVCAR-8. Further, the GI50 in the experiment on K562 was > 100 µM (inactive).
For `S=C(NCCc1ccccn1)N/N=C(\c1ccccc1)c1ccccn1`, the GI50 is 1.03 µM (active) with UACC-62; 2.33 µM (inactive) in the experiment with SF-295; 0.222 µM (active) with SF-268; 0.301 µM (active) in the experiment on LOX IMVI; 0.0933 µM (active) in the experiment on NCI/ADR-RES; 0.0277 µM in the experiment on HCT-15. The GI50 was 0.0525 µM (active) in the experiment with EKVX; < 0.01 µM (active) with CAKI-1; < 0.01 µM (active) in the experiment with HCT-116; 0.0989 µM (active) with OVCAR-3; 1.45 µM (inactive) with SK-MEL-5; 0.125 µM (active) in the experiment with NCI-H23. Also, the GI50 in the experiment on MDA-MB-435 was 5.86 µM (inactive); with HL-60 it was < 0.0359 µM (active); in the experiment with U-251 it was 0.121 µM (active); in the experiment with BT-549 it was 3.3 µM (inactive); in the experiment with CCRF-CEM, < 0.01 µM (active); in the experiment with OVCAR-8, < 0.01 µM (active). The GI50 in the experiment on K562 is < 0.01 µM (active).
As for `COc1cc(OC)c2nc(C)c3c(c2c1)OCC3`, the GI50 with UACC-62 was 44.8 µM (inactive); with SF-295, 34 µM (inactive); with SF-268, 47.2 µM (inactive); in the experiment with LOX IMVI, > 100 µM (inactive); with NCI/ADR-RES, > 100 µM (inactive); in the experiment on HCT-15 it was more than 100 µM. The GI50 in the experiment with EKVX is 75.2 µM (inactive); in the experiment on CAKI-1, 19.8 µM (inactive); with HCT-116, 80.7 µM (inactive); in the experiment on OVCAR-3, > 100 µM (inactive); in the experiment on SK-MEL-5 it was > 100 µM (inactive); in the experiment with NCI-H23, > 100 µM (inactive). Besides, the GI50 in the experiment with MDA-MB-435 was > 100 µM (inactive); in the experiment with HL-60 it was > 100 µM (inactive); in the experiment on U-251 it was 35 µM (inactive); in the experiment on BT-549, > 100 µM (inactive); with CCRF-CEM, > 100 µM (inactive); in the experiment on OVCAR-8, > 100 µM (inactive). Further, the GI50 in the experiment on K562 is > 100 µM (inactive).
On to `CN1CCc2c(sc3nc(S)nc(S)c23)C1`, for which the GI50 with UACC-62 is > 100 µM (inactive); in the experiment on SF-295, > 100 µM (inactive); with SF-268 it was > 100 µM (inactive); in the experiment on LOX IMVI it was > 100 µM (inactive); with NCI/ADR-RES it was > 100 µM (inactive); with HCT-15, more than 100 µM. Also, the GI50 in the experiment on EKVX, in the experiment with CAKI-1, in the experiment on HCT-116, in the experiment with OVCAR-3, with SK-MEL-5 and with NCI-H23 was > 100 µM (inactive) throughout. The GI50 in the experiment with MDA-MB-435 is > 100 µM (inactive); in the experiment on HL-60, > 100 µM (inactive); in the experiment on U-251, 72.4 µM (inactive); in the experiment with BT-549 it was > 100 µM (inactive); in the experiment with CCRF-CEM, > 100 µM (inactive); with OVCAR-8 it was > 100 µM (inactive). The GI50 with K562 was > 100 µM (inactive).
For `C1CCC(OCc2nnn3c2CCC3)OC1` (stereo not given), the GI50 is > 100 µM (inactive) in the experiment on UACC-62; > 100 µM (inactive) in the experiment with SF-295; > 100 µM (inactive) in the experiment with LOX IMVI; more than 100 µM with HCT-15; > 100 µM (inactive) in the experiment with EKVX; > 100 µM (inactive) in the experiment with HCT-116. In addition, the GI50 with OVCAR-3, with SK-MEL-5, in the experiment on NCI-H23, in the experiment on HL-60, with U-251 and in the experiment with CCRF-CEM was > 100 µM (inactive) throughout. The GI50 in the experiment with HOP-18 is < 0.01 µM (active); in the experiment on OVCAR-8 it was > 100 µM (inactive); in the experiment on K562, > 100 µM (inactive).
